Source: publication PMC4640650 (Science Advances, 2015)

Target: ATP synthase c-subunit (c9 rotor ring) (Mycolicibacterium phlei, UniProt A0A5N5V239)
Assay: X-ray cocrystal structure
Type: binding

## COc1nc2ccc(Br)cc2cc1[C@@H](c1ccccc1)[C@@](O)(CCN(C)C)c1cccc2ccccc12 [BDQ, Bedaquiline]
  IC50: 0.02 to 0.025 µM
